Measurements as given in US11000033B2, “Ketone or oxime compound, and herbicide” (NISSAN CHEMICAL CORPORATION, priority 2014, dated 2021).

Assays:
Format in all cases: in vivo
[1] = test system: Echinochloa oryzacola Vasing.; experiment: Test Example 2: herbicidal activity, application during weed generation in submerged conditions (symbol A); details: Table 23, grade 0-5 by criteria of Test Example 1
In short: (§1)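 Scoring of herbicidal effect took place 3 weeks after treatment, using the criteria of the earlier test. Treatment was water-surface application of diluted emulsifiable compound at a set dose. Plants were at one- to two-leaf stage in submerged alluvial soil (4 cm depth), greenhouse 25-30° C.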

Scirpus juncoides = experiment: Test Example 2: herbicidal activity, application during weed generation in submerged conditions (symbol B); details: Table 23, grade 0-5 by criteria of Test Example 1
In short: as §1

Monochoria vaginalis = experiment: Test Example 2: herbicidal activity, application during weed generation in submerged conditions (symbol C); details: Table 23, grade 0-5 by criteria of Test Example 1
In short: as §1

[2] = test system: Echinochloa crus-galli var. crus-galli; experiment: Test Example 3: herbicidal effect by foliage application, Wagner pot (symbol H)
In short: (§2)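 Foliar spray of a water-diluted emulsion at a predetermined herbicide amount, applied to 14-day-old plants. Seedlings were raised in flooded alluvial soil (0.1–0.5 cm water) at 25–30 °C in a greenhouse. Injury was rated after 3 weeks against fixed criteria.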

Leptochloa chinensis = experiment: Test Example 3: herbicidal effect by foliage application, Wagner pot (symbol D)
In short: as §2

Digitaria ciliaris = experiment: Test Example 4: herbicidal effect by soil treatment (symbol F)
In short: (§3)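 Seeds were sown in sterilized diluvial soil, covered with about 1.5 cm of soil, and the soil surface was sprayed with a water-diluted emulsion of the compound at a predetermined rate. Plants grew in a greenhouse at 25° C. to 30° C.; effects were scored visually 3 weeks after application.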

Setaria viridis = experiment: Test Example 4: herbicidal effect by soil treatment (symbol G)
In short: as §3

Avena fatua = experiment: Test Example 4: herbicidal effect by soil treatment (symbol I)
In short: as §3

Alopecurus myosuroides [3] = experiment: Test Example 4: herbicidal effect by soil treatment (symbol J)
In short: as §3

Lolium multiflorum Lam. = experiment: Test Example 4: herbicidal effect by soil treatment (symbol K)
In short: as §3

Stellaria media [4] = experiment: Test Example 4: herbicidal effect by soil treatment (symbol P)
In short: as §3

Veronica persica = experiment: Test Example 4: herbicidal effect by soil treatment (symbol R)
In short: as §3

rice = experiment: Test Example 4: effect on crop by soil treatment (symbol b)
In short: (§4)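 Greenhouse culture at 25° C. to 30° C. followed sowing of seed in spots on sterilized diluvial soil with a soil cover close to 1.5 cm thick.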

wheat = experiment: Test Example 4: effect on crop by soil treatment (symbol e)
In short: as §4

[5] = test system: Echinochloa crus-galli var. crus-galli; experiment: Test Example 5: herbicidal effect by foliage application, plastic box (symbol H); details: 3 weeks after application; for H: Echinochloa crus-galli var. crus-galli, herbicidal effect (criteria 0-5): 320 g/ha
In short: (§5)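 Seeds were sown in sterilized diluvial soil, covered with about 1.5 cm of soil and grown 14 days in a greenhouse at 25° C. to 30° C. An emulsifiable formulation diluted in water to a set rate was sprayed over foliage, and injury was scored 3 weeks later.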

Alopecurus myosuroides [6] = experiment: Test Example 5: herbicidal effect by foliage application, plastic box (symbol J); details: 3 weeks after application; for J: Alopecurus myosuroides, herbicidal effect (criteria 0-5): 320 g/ha
In short: as §5

Amaranthus retroflexus = experiment: Test Example 5: herbicidal effect by foliage application, plastic box (symbol N); details: 3 weeks after application; for N: Amaranthus retroflexus, herbicidal effect (criteria 0-5): 320 g/ha
In short: as §5

Chenopodium album = experiment: Test Example 5: herbicidal effect by foliage application, plastic box (symbol O); details: 3 weeks after application; for O: Chenopodium album, herbicidal effect (criteria 0-5): 320 g/ha
In short: as §5

Stellaria media [7] = experiment: Test Example 5: herbicidal effect by foliage application, plastic box (symbol P); details: 3 weeks after application; for P: Stellaria media, herbicidal effect (criteria 0-5): 320 g/ha
In short: as §5

rice plant = experiment: Test Example 5: effect on crop by foliage application, plastic box (symbol b); details: 3 weeks after application; for b: directly sowed rice plant, effect on crop (criteria 0-5): 320 g/ha
In short: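 Greenhouse test at 25° C. to 30° C. Seeds of crops and weeds were spot-sown in boxes of sterilized diluvial soil under roughly 1.5 cm soil cover, then grown for foliage treatment.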

[8] = application herbicide amount 320 g/ha
[9] = application herbicide amount 102 g/ha

Compound | Herbicidal effect grade, A: Echinochloa oryzacola Vasing. [1, 8] | Herbicidal effect grade, B: Scirpus juncoides (Scirpus juncoides; [8]) | Herbicidal effect grade, C: Monochoria vaginalis (Monochoria vaginalis; [8]) | herbicidal effect on H (Echinochloa crus-galli var. crus-galli), grade 0-5 [2, 8] | herbicidal effect on D (Leptochloa chinensis), grade 0-5 (Leptochloa chinensis; [8]) | F: Digitaria ciliaris, herbicidal effect grade (Digitaria ciliaris; 320 g/ha) | G: Setaria viridis, herbicidal effect grade (Setaria viridis; 320 g/ha) | I: Avena fatua, herbicidal effect grade (Avena fatua; 320 g/ha) | J: Alopecurus myosuroides, herbicidal effect grade (Alopecurus myosuroides [3]; 320 g/ha) | K: Lolium multiflorum Lam., herbicidal effect grade (Lolium multiflorum Lam.; 320 g/ha) | P: Stellaria media, herbicidal effect grade (Stellaria media [4]; 320 g/ha) | R: Veronica persica, herbicidal effect grade (Veronica persica; 320 g/ha) | b: directly sowed rice plant, effect grade on crop (rice; 320 g/ha) | e: wheat, effect grade on crop (wheat; 320 g/ha) | H: Echinochloa crus-galli var. crus-galli, herbicidal effect (criteria 0-5) [5] | J: Alopecurus myosuroides, herbicidal effect (criteria 0-5) (Alopecurus myosuroides [6]) | N: Amaranthus retroflexus, herbicidal effect (criteria 0-5) (Amaranthus retroflexus) | O: Chenopodium album, herbicidal effect (criteria 0-5) (Chenopodium album) | P: Stellaria media, herbicidal effect (criteria 0-5) (Stellaria media [7]) | b: directly sowed rice plant, effect on crop (criteria 0-5) (rice plant) | further results
CC(CC1CC(O)=C(c2c(C)cc(C)cc2C)C1=O)=NOCC(C)Br (stereo not drawn) [1-135] | 5 (Herbicidal ratio of 90% or more (almost completely withered)) | 4 (Herbicidal ratio of 70% or higher and lower than 90%) | 0 (Herbicidal ratio of 5% or lower (almost no effect)) | 5 (Herbicidal ratio of 90% or more (almost completely withered)) | 4 (Herbicidal ratio of 70% or higher and lower than 90%) | 5 (Herbicidal ratio of 90% or more (almost completely withered)) | 5 (Herbicidal ratio of 90% or more (almost completely withered)) | 3 (Herbicidal ratio of 40% or higher and lower than 70%) | 5 (Herbicidal ratio of 90% or more (almost completely withered)) | 5 (Herbicidal ratio of 90% or more (almost completely withered)) | 0 (Herbicidal ratio of 5% or lower (almost no effect)) | 2 (Herbicidal ratio of 20% or higher and lower than 40%) | 5 (Herbicidal ratio of 90% or more (almost completely withered)) | 0 (Herbicidal ratio of 5% or lower (almost no effect)) | 5 (Herbicidal ratio of 90% or more (almost completely withered)) | 5 (Herbicidal ratio of 90% or more (almost completely withered)) | 0 (Herbicidal ratio of 5% or lower (almost no effect)) | 5 (Herbicidal ratio of 90% or more (almost completely withered)) | 1 (Herbicidal ratio of 5% or higher and lower than 20%) | 5 (Herbicidal ratio of 90% or more (almost completely withered)) | 
CCC(Oc1ccc2ncc(Br)cc2c1)C(=O)OC1=C(c2c(C)cc(C)cc2C)C(=O)C(CC(C)=NOC)C1 (stereo not drawn) [1-140] | 5 (Herbicidal ratio of 90% or more (almost completely withered)) | 5 (Herbicidal ratio of 90% or more (almost completely withered)) | 3 (Herbicidal ratio of 40% or higher and lower than 70%) | 5 (Herbicidal ratio of 90% or more (almost completely withered)) | 5 (Herbicidal ratio of 90% or more (almost completely withered)) | 5 (Herbicidal ratio of 90% or more (almost completely withered)) | 5 (Herbicidal ratio of 90% or more (almost completely withered)) | 4 (Herbicidal ratio of 70% or higher and lower than 90%) | 5 (Herbicidal ratio of 90% or more (almost completely withered)) | 5 (Herbicidal ratio of 90% or more (almost completely withered)) | 0 (Herbicidal ratio of 5% or lower (almost no effect)) | 0 (Herbicidal ratio of 5% or lower (almost no effect)) | 5 (Herbicidal ratio of 90% or more (almost completely withered)) | 5 (Herbicidal ratio of 90% or more (almost completely withered)) | 5 (Herbicidal ratio of 90% or more (almost completely withered)) | 5 (Herbicidal ratio of 90% or more (almost completely withered)) | 3 (Herbicidal ratio of 40% or higher and lower than 70%) | 2 (Herbicidal ratio of 20% or higher and lower than 40%) | 3 (Herbicidal ratio of 40% or higher and lower than 70%) | 5 (Herbicidal ratio of 90% or more (almost completely withered)) | 
CC(=O)CC1CC(O)=C(c2c(C)cc(C)cc2C)C1=O (stereo not drawn) [2-001, 3-hydroxy-2-mesityl-5-(2-oxopropyl)cyclopent-2-enone] |  |  |  |  |  |  |  |  |  |  |  |  |  |  |  |  |  |  |  |  | Herbicidal effect grade, A: Echinochloa oryzacola Vasing. [1, 9]: 0 (Herbicidal ratio of 5% or lower (almost no effect)); Herbicidal effect grade, B: Scirpus juncoides (Scirpus juncoides; [9]): 0 (Herbicidal ratio of 5% or lower (almost no effect)); Herbicidal effect grade, C: Monochoria vaginalis (Monochoria vaginalis; [9]): 0 (Herbicidal ratio of 5% or lower (almost no effect)); herbicidal effect on H (Echinochloa crus-galli var. crus-galli), grade 0-5 [2, 9]: 5 (Herbicidal ratio of 90% or more (almost completely withered)); herbicidal effect on D (Leptochloa chinensis), grade 0-5 (Leptochloa chinensis; [9]): 5 (Herbicidal ratio of 90% or more (almost completely withered)); F: Digitaria ciliaris, herbicidal effect grade (Digitaria ciliaris; 102 g/ha): 5 (Herbicidal ratio of 90% or more (almost completely withered)); G: Setaria viridis, herbicidal effect grade (Setaria viridis; 102 g/ha): 4 (Herbicidal ratio of 70% or higher and lower than 90%); I: Avena fatua, herbicidal effect grade (Avena fatua; 102 g/ha): 0 (Herbicidal ratio of 5% or lower (almost no effect)); J: Alopecurus myosuroides, herbicidal effect grade (Alopecurus myosuroides [3]; 102 g/ha): 4 (Herbicidal ratio of 70% or higher and lower than 90%); K: Lolium multiflorum Lam., herbicidal effect grade (Lolium multiflorum Lam.; 102 g/ha): 5 (Herbicidal ratio of 90% or more (almost completely withered)); P: Stellaria media, herbicidal effect grade (Stellaria media [4]; 102 g/ha): 0 (Herbicidal ratio of 5% or lower (almost no effect)); R: Veronica persica, herbicidal effect grade (Veronica persica; 102 g/ha): 0 (Herbicidal ratio of 5% or lower (almost no effect)); b: directly sowed rice plant, effect grade on crop (rice; 102 g/ha): 5 (Herbicidal ratio of 90% or more (almost completely withered)); e: wheat, effect grade on crop (wheat; 102 g/ha): 0 (Herbicidal ratio of 5% or lower (almost no effect)); H: Echinochloa crus-galli var. crus-galli, herbicidal effect grade ([5]; 102 g/ha): 5 (Herbicidal ratio of 90% or more (almost completely withered)); J: Alopecurus myosuroides, herbicidal effect grade (Alopecurus myosuroides [6]; 102 g/ha): 5 (Herbicidal ratio of 90% or more (almost completely withered)); N: Amaranthus retroflexus, herbicidal effect grade (Amaranthus retroflexus; 102 g/ha): 2 (Herbicidal ratio of 20% or higher and lower than 40%); O: Chenopodium album, herbicidal effect grade (Chenopodium album; 102 g/ha): 3 (Herbicidal ratio of 40% or higher and lower than 70%); P: Stellaria media, herbicidal effect grade (Stellaria media [7]; 102 g/ha): 3 (Herbicidal ratio of 40% or higher and lower than 70%); b: directly sowed rice plant, effect on crop grade (rice plant; 102 g/ha): 4 (Herbicidal ratio of 70% or higher and lower than 90%)
